Laboratory results as given in patent publication US7091238B1, “Thienylhydrazon with digitalis-like properties (positive inotropic effects)” (University of Maryland, priority 1999, dated 2006).
Entries after “also recorded” stand apart in the source; their conditions may differ.

What was measured:
[1] = Toxicity study: body weight after injection; assay type: in vivo, mice; details: vs saline and solvent vehicle controls, 1–15 days of treatment
Description: (§1) b. Rats were weighed before and after treatment with LASSBio 204. […] Six rats were examined in each group, measurements were made after 1–15 days of treatment. […] Mice were injected with LASSBio-294 and their blood examined for cell changes. Experimental groups received 2 or 10 mg/kg of drug. […] Table 4 lists blood chemistry analysis of mice treated with LASSBio-294. Experimental groups received 2 or 10 mg/kg of drug. Controls were saline and solvent. […] The low values of glucose found could be due to an artifact of the technique, glucose being a byproduct of hemolysis. […] General Method

[2] = Blood biochemistry analysis in treated mice; assay type: in vivo
Description: as §1

[3] = test system: rat cardiac muscle; test: Isometric tension of papillary, atrial and ventricular bundles of cardiac muscle
Description: FIG. 2. The papillary muscle, and bundles of atrial and ventricular cells obtained from rat hearts were dissected and set in an aerated chamber to enable recording of isometric tension. LASSBio-294 was added to the chamber in a cumulative manner, first 10 μM and increasing to 50 μM and recordings made after allowing 5 min. for equilibration.
FIG. 3. LASSBio-294 was added to the physiologic solution at increasing concentrations. The isometric tension was expressed as a percent of control, as measured prior to addition of test solution. N=9 for each concentration.
a. The test shown in FIG. 2 measured the effect of LASSBio-294 on the isometric tension of papillary, atrial, and ventricular bundles of rat cardiac muscle. Chart traces are of muscle tension for each muscle group. […] FIG. 3 contains a graphic representation of the effect of LASSBio-294 on isometric tension of papillary, atrial, and ventricular bundles of rat cardiac muscle. LASSBio-294 at concentrations of 0 μM, 25 μM, 50 μM, 100 μM, 200 μM, and 500 μM was used. Isometric tension is expressed as a percent of control that was measured prior to addition of the test solution. […] General Method
The papillary muscle, and bundles of atrial and ventricular cells obtained from rat hearts were dissected and set in an aerated verticle chamber to enable recording of isometric tension. LASSBio-294 was added to the chamber in a cumulative manner. Recordings made after allowing 5 min. for equilibration.

[4] = test system: contractile system of cardiac fibers; test: Ca2+-induced tension in Triton X-100 treated left ventricular muscle bundles; design: species or system Wistar rats
Description: FIG. 12. Muscle bundles were treated with 1% Triton X-100 for 60 min and exposed to solutions containing increasing concentrations of Ca^2+ in the presence or absence of LASSBio-294 (100 μM). Calibration: Vertical, 10 mm=20 mg; Horizontal, 10 mm=40 sec.
FIG. 13. Bundles of left ventricular muscles were treated with Triton X-100 and exposed to increasing concentrations of Ca^2+. Muscle tension expressed as % of the maximal response induced by 0.5 mM CaCl2 is graphed as a function of pCa.
b. Graphic representation of the tests in FIG. 7 showing the effect of LASSBio-294 on uptake of Ca^2+ by sarcoplasmic reticulum in isolated cardiac muscle with sarcolemma removed. FIG. 9 illustrates the effect of LASSBio-294 on tension in isolated cardiac muscle with sarcolemma removed was measured. Measurement of contraction induced by caffeine, as a function concentration of LASSBio-294 in bathing solution. FIG. 9 is a graphic representation of the effect of increasing concentrations of LASSBio-294 between 0 and 20 μM. […] FIG. 12 illustrates the effect of LASSBio-294 on sensitivity of cardiac fibers to calcium. Calcium levels can induce isometric twitch. […]
Bundles of left ventricular muscle (130 μm diameter and 1–2 mm in thickness) from Wistar rats were dissected out and mounted for measurement of isometric tension. […] Comparison of caffeine alone to caffeine in the presence of LASSBio-294 was measured.

[5] = test system: sarcoplasmic reticulum of human skeletal muscle fibers (vastus lateralis); test: Induced tension in isolated human skeletal muscle fiber (sarcolemma removed); assay type: cell-based; details: 25, 50, 100 μM, SR loaded at pCa 7.0 for 3 min
Description: FIG. 14. Isolated human skeletal muscle fiber from the vastus lateralis (sarcolemmal membrane-free) was exposed to 0.5 mM of CaCl2 to enable maximal muscle tension (Po). The histogram show the effect of LASSBio-294 at concentrations of 25, 50 and 100 μM on induced tension in human fibers. N=6 Calibration: Vertical; 10 mm=20 mg; Horizontal, 10 mm=40 s.
Isolated muscle fiber from the vastus lateralis was exposed to 0.5 mM of CaCl2 to enable maximal muscle tension.

[6] = test system: Ca^2+-ATPase extracted from heart muscle or gastrocnemius muscle; test: Effect on Ca2+-ATPase; assay type: biochemical; details: enzyme from rat heart or gastrocnemius muscle
From the text: (§2) Determination of phosphodiesterase direct effect was also negative.

[7] = test system: phosphodiesterase; test: Phosphodiesterase direct effect; assay type: biochemical
From the text: as §2

[8] = test system: particulate PDE 4; test: Direct inhibition of particulate PDE 4; assay type: biochemical; details: rat heart

SMILES: O=C(NN=Cc1cccs1)c1ccc2c(c1)OCO2 [LASSBio-294, 3,4-methylenedioxybenzoyl-2-thienylhydrazone]
- body weight [1]: unaffected
- body weight ([1]; listed as LASSBio294): no change in weight
- hemoglobin, erythrocytes and blood biochemistry ([2]; male and female mice, long-term treatment): values similar to control
- blood chemistry values ([2]; mice, 2 or 10 mg/kg, controls saline and solvent): no significant change in blood chemistry values
- isometric tension as percent of control vs concentration ([3]; 0, 25, 50, 100, 200, 500 μM, nine tests per concentration): increased for each concentration up to 200 μM
- isometric tension ([3]; papillary, atrial, ventricular bundles, 10 μM and 50 μM cumulative): increase in tension
- increased tension over control ([3]; ventricular, papillary and atrial bundles, concentrations of up to 200 uM): ≤ 2 fold
- sensitivity of muscle fibers to calcium [4]: does not change
- isometric twitch response at each level of pCa ([4]; Triton X-100 treated fibers, 100 μM vs control): greater in the presence of LASSBio-294 than in control
- release of Ca^2+ from the sarcoplasmic reticulum / induced tension [5]: induces the release of Ca^2+; also recorded: evoked a contraction
- effect on Ca^2+-ATPase [6]: did not affect
- phosphodiesterase direct effect [7]: negative
- direct inhibition of particulate PDE 4 [8]: did not inhibit directly
